Measurements as given in ChEMBL document CHEMBL3044623, “Feeding cessation effects of chlorantraniliprole, a new anthranilic diamide insecticide, in comparison with several insecticides in distinct chemical classes and mode-of-action groups” (2009).

Key:
[1] = tested on: Helicoverpa zea; test: Antifeedant activity against third-instar larval stage of Helicoverpa zea (corn earworm) infested compound-treated leaf assessed as reduction in feeding damage at 244 mg a.i/L after 48 hr by leaf disk assay relative to untreated control; format: functional; parameters: scale not given: the % may be the effect or the level left
[2] = tested on: Trichoplusia ni; test: Antifeedant activity against third-instar larval stage of Trichoplusia ni (cabbage looper) infested compound-treated leaf assessed as time required to stop feeding at 244 mg a.i/L after 48 hr by leaf disk assay (reference value: > 2880 min); format: functional
[3] = tested on: Plutella xylostella; test: Antifeedant activity against third-instar larval stage of Plutella xylostella (diamondback moth) infested compound-treated leaf assessed as reduction in feeding damage at 244 mg a.i/L after 48 hr by leaf disk assay relative to untreated control; format: functional; parameters: scale not given: the % may be the effect or the level left
[4] = tested on: Helicoverpa zea; test: Antifeedant activity against third-instar larval stage of Helicoverpa zea (corn earworm) infested compound-treated leaf assessed as time required to stop feeding at 244 mg a.i/L after 48 hr by leaf disk assay (reference value: > 2880 min); format: functional
[5] = tested on: Spodoptera exigua; test: Antifeedant activity against third-instar larval stage of Spodoptera exigua infested compound-treated leaf assessed as reduction in feeding damage at 244 mg a.i/L after 48 hr by leaf disk assay relative to untreated control; format: functional; parameters: scale not given: the % may be the effect or the level left
[6] = tested on: Spodoptera exigua; test: Antifeedant activity against third-instar larval stage of Spodoptera exigua infested compound-treated leaf assessed as time required to stop feeding at 244 mg a.i/L after 48 hr by leaf disk assay (reference value: > 2880 min); format: functional
[7] = tested on: Trichoplusia ni; test: Antifeedant activity against third-instar larval stage of Trichoplusia ni (cabbage looper) infested compound-treated leaf assessed as reduction in feeding damage at 244 mg a.i/L after 48 hr by leaf disk assay relative to untreated control; format: functional; parameters: scale not given: the % may be the effect or the level left
[8] = tested on: Plutella xylostella; test: Antifeedant activity against third-instar larval stage of Plutella xylostella (diamondback moth) infested compound-treated leaf assessed as time required to stop feeding at 244 mg a.i/L after 48 hr by leaf disk assay (reference value: > 2880 min); format: functional
[9] = tested on: Trichoplusia ni; test: Antifeedant activity against third-instar larval stage of Trichoplusia ni (cabbage looper) infested compound-treated leaf assessed as reduction in feeding damage at 467 mg a.i/L after 48 hr by leaf disk assay relative to untreated control; format: functional; parameters: scale not given: the % may be the effect or the level left
[10] = tested on: Spodoptera exigua; test: Antifeedant activity against third-instar larval stage of Spodoptera exigua infested compound-treated leaf assessed as time required to stop feeding at 467 mg a.i/L after 48 hr by leaf disk assay (reference value: > 2880 min); format: functional
[11] = tested on: Plutella xylostella; test: Antifeedant activity against third-instar larval stage of Plutella xylostella (diamondback moth) infested compound-treated leaf assessed as time required to stop feeding at 467 mg a.i/L after 48 hr by leaf disk assay (reference value: > 2880 min); format: functional
[12] = tested on: Helicoverpa zea; test: Antifeedant activity against third-instar larval stage of Helicoverpa zea (corn earworm) infested compound-treated leaf assessed as reduction in feeding damage at 467 mg a.i/L after 48 hr by leaf disk assay relative to untreated control; format: functional; parameters: scale not given: the % may be the effect or the level left
[13] = tested on: Helicoverpa zea; test: Antifeedant activity against third-instar larval stage of Helicoverpa zea (corn earworm) infested compound-treated leaf assessed as time required to stop feeding at 467 mg a.i/L after 48 hr by leaf disk assay (reference value: > 2880 min); format: functional
[14] = tested on: Plutella xylostella; test: Antifeedant activity against third-instar larval stage of Plutella xylostella (diamondback moth) infested compound-treated leaf assessed as reduction in feeding damage at 467 mg a.i/L after 48 hr by leaf disk assay relative to untreated control; format: functional; parameters: scale not given: the % may be the effect or the level left
[15] = tested on: Trichoplusia ni; test: Antifeedant activity against third-instar larval stage of Trichoplusia ni (cabbage looper) infested compound-treated leaf assessed as time required to stop feeding at 467 mg a.i/L after 48 hr by leaf disk assay (reference value: > 2880 min); format: functional
[16] = tested on: Spodoptera exigua; test: Antifeedant activity against third-instar larval stage of Spodoptera exigua infested compound-treated leaf assessed as reduction in feeding damage at 467 mg a.i/L after 48 hr by leaf disk assay relative to untreated control; format: functional; parameters: scale not given: the % may be the effect or the level left
[17] = tested on: Spodoptera exigua; test: Antifeedant activity against third-instar larval stage of Spodoptera exigua infested compound-treated leaf assessed as time required to stop feeding at 124 mg a.i/L after 48 hr by leaf disk assay (reference value: > 2880 min); format: functional
[18] = tested on: Plutella xylostella; test: Antifeedant activity against third-instar larval stage of Plutella xylostella (diamondback moth) infested compound-treated leaf assessed as reduction in feeding damage at 124 mg a.i/L after 48 hr by leaf disk assay relative to untreated control; format: functional; parameters: scale not given: the % may be the effect or the level left
[19] = tested on: Plutella xylostella; test: Antifeedant activity against third-instar larval stage of Plutella xylostella (diamondback moth) infested compound-treated leaf assessed as time required to stop feeding at 124 mg a.i/L after 48 hr by leaf disk assay (reference value: > 2880 min); format: functional
[20] = tested on: Trichoplusia ni; test: Antifeedant activity against third-instar larval stage of Trichoplusia ni (cabbage looper) infested compound-treated leaf assessed as reduction in feeding damage at 124 mg a.i/L after 48 hr by leaf disk assay relative to untreated control; format: functional; parameters: scale not given: the % may be the effect or the level left
[21] = tested on: Helicoverpa zea; test: Antifeedant activity against third-instar larval stage of Helicoverpa zea (corn earworm) infested compound-treated leaf assessed as time required to stop feeding at 124 mg a.i/L after 48 hr by leaf disk assay (reference value: > 2880 min); format: functional
[22] = tested on: Helicoverpa zea; test: Antifeedant activity against third-instar larval stage of Helicoverpa zea (corn earworm) infested compound-treated leaf assessed as reduction in feeding damage at 124 mg a.i/L after 48 hr by leaf disk assay relative to untreated control; format: functional; parameters: scale not given: the % may be the effect or the level left
[23] = tested on: Spodoptera exigua; test: Antifeedant activity against third-instar larval stage of Spodoptera exigua infested compound-treated leaf assessed as reduction in feeding damage at 124 mg a.i/L after 48 hr by leaf disk assay relative to untreated control; format: functional; parameters: scale not given: the % may be the effect or the level left
[24] = tested on: Trichoplusia ni; test: Antifeedant activity against third-instar larval stage of Trichoplusia ni (cabbage looper) infested compound-treated leaf assessed as time required to stop feeding at 124 mg a.i/L after 48 hr by leaf disk assay (reference value: > 2880 min); format: functional
[25] = tested on: Helicoverpa zea; test: Antifeedant activity against third-instar larval stage of Helicoverpa zea (corn earworm) infested compound-treated leaf assessed as reduction in feeding damage at 936 mg a.i/L after 48 hr by leaf disk assay relative to untreated control; format: functional, organism-based; parameters: scale not given: the % may be the effect or the level left
[26] = tested on: Spodoptera exigua; test: Antifeedant activity against third-instar larval stage of Spodoptera exigua infested compound-treated leaf assessed as time required to stop feeding at 936 mg a.i/L after 48 hr by leaf disk assay (reference value: > 2880 min); format: functional, organism-based
[27] = tested on: Trichoplusia ni; test: Antifeedant activity against third-instar larval stage of Trichoplusia ni (cabbage looper) infested compound-treated leaf assessed as time required to stop feeding at 936 mg a.i/L after 48 hr by leaf disk assay (reference value: > 2880 min); format: functional, organism-based
[28] = tested on: Plutella xylostella; test: Antifeedant activity against third-instar larval stage of Plutella xylostella (diamondback moth) infested compound-treated leaf assessed as time required to stop feeding at 936 mg a.i/L after 48 hr by leaf disk assay (reference value: > 2880 min); format: functional, organism-based
[29] = tested on: Plutella xylostella; test: Antifeedant activity against third-instar larval stage of Plutella xylostella (diamondback moth) infested compound-treated leaf assessed as reduction in feeding damage at 936 mg a.i/L after 48 hr by leaf disk assay relative to untreated control; format: functional, organism-based; parameters: scale not given: the % may be the effect or the level left
[30] = tested on: Trichoplusia ni; test: Antifeedant activity against third-instar larval stage of Trichoplusia ni (cabbage looper) infested compound-treated leaf assessed as reduction in feeding damage at 936 mg a.i/L after 48 hr by leaf disk assay relative to untreated control; format: functional, organism-based; parameters: scale not given: the % may be the effect or the level left
[31] = tested on: Helicoverpa zea; test: Antifeedant activity against third-instar larval stage of Helicoverpa zea (corn earworm) infested compound-treated leaf assessed as time required to stop feeding at 936 mg a.i/L after 48 hr by leaf disk assay (reference value: > 2880 min); format: functional, organism-based
[32] = tested on: Spodoptera exigua; test: Antifeedant activity against third-instar larval stage of Spodoptera exigua infested compound-treated leaf assessed as reduction in feeding damage at 936 mg a.i/L after 48 hr by leaf disk assay relative to untreated control; format: functional, organism-based; parameters: scale not given: the % may be the effect or the level left

COC(=O)N(C(=O)N1CO[C@@]2(C(=O)OC)Cc3cc(Cl)ccc3C2=N1)c1ccc(OC(F)(F)F)cc1 [INDOXACARB]
Activity [1]: 93.4%
Time [2]: 83.6 min
Activity [3]: 96.6%
Time [4]: 77.2 min
Activity [5]: 95.4%
Time [6]: 54.2 min
Activity [7]: 94.8%
Time [8]: 151.6 min

COc1cccc(C(=O)NN(C(=O)c2cc(C)cc(C)c2)C(C)(C)C)c1C [METHOXYFENOZIDE]
Activity [9]: 81.6%
Time [10]: 281.1 min
Time [11]: 514.5 min
Activity [12]: 93.3%
Time [13]: 471.8 min
Activity [14]: 96%
Time [15]: 408.8 min
Activity [16]: 72.9%

CC1(C)[C@H](/C=C(\Cl)C(F)(F)F)[C@@H]1C(=O)O[C@@H](C#N)c1cccc(Oc2ccccc2)c1 [REL-LAMBDA CYHALOTHRIN]
Time [17]: 5.4 min
Activity [18]: 99.6%
Time [19]: 8.1 min
Activity [20]: 99.9%
Time [21]: 7.3 min
Activity [22]: 99.9%
Activity [23]: 99.5%
Time [24]: 9.3 min

METAFLUMIZONE
Activity [25]: 57.9%
TIME [26]: 7.96 h
TIME [27]: 4.23 h
TIME [28]: 6.04 h
Activity [29]: 89.6%
Activity [30]: 87.6%
TIME [31]: 10.3 h
Activity [32]: 47.4%
